In ChEMBL document CHEMBL1201862, “PubChem BioAssay data set” (2004):
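Values below derive from 48-hour exposures of cells grown in 96-well plates, with endpoints linearly interpolated between the two concentrations bracketing the appropriate inhibition level. GI50 marks 50% less growth.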 Activity calls are given as the source filed them. Rule as the data show it: active = GI50 up to about 1.1 µM and inactive = higher.

What was measured:
Assay in all cases: inhibition of tumour cell growth, NCI panel, 48 h
786-0 = system: 786-0
A549 = system: A549
ACHN = system: ACHN
BT-549 = system: BT-549
CAKI-1 = system: CAKI-1
CCRF-CEM = system: CCRF-CEM
COLO 205 = system: COLO 205
DU-145 = system: DU-145
EKVX = system: EKVX
HCC 2998 = system: HCC 2998
HCT-116 = system: HCT-116
HCT-15 = system: HCT-15
HOP-62 = system: HOP-62
HOP-92 = system: HOP-92
HT-29 = system: HT-29
K562 = system: K562
KM12 = system: KM12
M14 = system: M14
MCF7 = system: MCF7
MDA-MB-231 = system: MDA-MB-231
MDA-MB-435 = system: MDA-MB-435
MDA-N = system: MDA-N
MOLT-4 = system: MOLT-4
Malme-3M = system: Malme-3M
NCI-H226 = system: NCI-H226
NCI-H23 = system: NCI-H23
NCI-H460 = system: NCI-H460
NCI-H522 = system: NCI-H522
NCI/ADR-RES = system: NCI/ADR-RES
OVCAR-3 = system: OVCAR-3
OVCAR-4 = system: OVCAR-4
OVCAR-5 = system: OVCAR-5
OVCAR-8 = system: OVCAR-8
PC-3 = system: PC-3
RPMI-8226 = system: RPMI-8226
RXF 393 = system: RXF 393
SF-268 = system: SF-268
SK-MEL-2 = system: SK-MEL-2
SN12C = system: SN12C
SNB-19 = system: SNB-19
SR = system: SR
SW-620 = system: SW-620
T47D = system: T47D
TK-10 = system: TK-10
U-251 = system: U-251
UACC-257 = system: UACC-257
UO-31 = system: UO-31
A498 = system: A498
HL-60 = system: HL-60
IGROV-1 = system: IGROV-1
LOX IMVI = system: LOX IMVI
SF-295 = system: SF-295
SF-539 = system: SF-539
SK-MEL-28 = system: SK-MEL-28
SK-MEL-5 = system: SK-MEL-5
SK-OV-3 = system: SK-OV-3
SNB-75 = system: SNB-75
UACC-62 = system: UACC-62

With `NC(=O)N/N=C1\CCCCc2ccccc21` the GI50 (786-0) was > 10 µM (inactive), the GI50 (A549) was > 10 µM (inactive) and the GI50 (ACHN) was > 10 µM (inactive). For the same molecule, the GI50 (BT-549) was > 10 µM (inactive), the GI50 (CAKI-1) was > 10 µM (inactive) and the GI50 (CCRF-CEM) was > 10 µM (inactive). For the same molecule, the GI50 (COLO 205) was > 10 µM (inactive), the GI50 (DU-145) was > 10 µM (inactive) and the GI50 (EKVX) was > 10 µM (inactive). The GI50 (HCC 2998) was > 10 µM (inactive), the GI50 (HCT-116) was > 10 µM (inactive) and the GI50 (HCT-15) was > 10 µM. The GI50 (HOP-62) was > 10 µM (inactive), the GI50 (HOP-92) was > 10 µM (inactive) and the GI50 (HT-29) was > 10 µM (inactive). For the same molecule, the GI50 (K562) was > 10 µM (inactive), the GI50 (KM12) was > 10 µM (inactive) and the GI50 (M14) was > 10 µM (inactive). The GI50 (MCF7) was > 10 µM (inactive), the GI50 (MDA-MB-231) was > 10 µM (inactive) and the GI50 (MDA-MB-435) was > 10 µM (inactive). For the same molecule, the GI50 (MDA-N) was > 10 µM (inactive), the GI50 (MOLT-4) was > 10 µM (inactive) and the GI50 (Malme-3M) was > 10 µM (inactive). For the same molecule, the GI50 (NCI-H226) was > 10 µM (inactive), the GI50 (NCI-H23) was > 10 µM (inactive) and the GI50 (NCI-H460) was > 10 µM (inactive). For the same molecule, the GI50 (NCI-H522) was > 10 µM (inactive), the GI50 (NCI/ADR-RES) was > 10 µM (inactive) and the GI50 (OVCAR-3) was > 10 µM (inactive). The GI50 (OVCAR-4) was > 10 µM (inactive), the GI50 (OVCAR-5) was > 10 µM (inactive) and the GI50 (OVCAR-8) was > 10 µM (inactive). For the same molecule, the GI50 (PC-3) was > 10 µM (inactive), the GI50 (RPMI-8226) was > 10 µM (inactive) and the GI50 (RXF 393) was > 10 µM (inactive). For the same molecule, the GI50 (SF-268) was > 10 µM (inactive), the GI50 (SK-MEL-2) was > 10 µM (inactive) and the GI50 (SN12C) was > 10 µM (inactive). The GI50 (SNB-19) was > 10 µM (inactive), the GI50 (SR) was > 10 µM (inactive) and the GI50 (SW-620) was > 10 µM (inactive). The GI50 (T47D) was > 10 µM (inactive), the GI50 (TK-10) was > 10 µM (inactive) and the GI50 (U-251) was > 10 µM (inactive). The GI50 (UACC-257) was > 10 µM (inactive) and the GI50 (UO-31) was > 10 µM (inactive).
In the case of `CC(C)(C)OC(=O)NC(CS(=O)(=O)O)C(=O)O` (stereo not given), the GI50 (786-0) is reported as > 100 µM (inactive), the GI50 (A498) is reported as > 100 µM (inactive) and the GI50 (A549) is reported as > 100 µM (inactive). The GI50 (ACHN) was > 100 µM (inactive), the GI50 (BT-549) was > 100 µM (inactive) and the GI50 (CAKI-1) was > 100 µM (inactive). The GI50 (CCRF-CEM) was > 100 µM (inactive), the GI50 (COLO 205) was > 100 µM (inactive) and the GI50 (DU-145) was > 100 µM (inactive). For the same molecule, the GI50 (EKVX) was > 100 µM (inactive), the GI50 (HCC 2998) was > 100 µM (inactive) and the GI50 (HCT-116) was > 100 µM (inactive). For the same molecule, the GI50 (HCT-15) was > 100 µM, the GI50 (HL-60) was > 100 µM (inactive) and the GI50 (HOP-62) was > 100 µM (inactive). The GI50 (HOP-92) was > 100 µM (inactive), the GI50 (HT-29) was > 100 µM (inactive) and the GI50 (IGROV-1) was > 100 µM (inactive). The GI50 (K562) was > 100 µM (inactive), the GI50 (KM12) was > 100 µM (inactive) and the GI50 (LOX IMVI) was > 100 µM (inactive). For the same molecule, the GI50 (M14) was > 100 µM (inactive), the GI50 (MCF7) was > 100 µM (inactive) and the GI50 (MDA-MB-231) was > 100 µM (inactive). The GI50 (MDA-MB-435) was > 100 µM (inactive), the GI50 (MDA-N) was > 100 µM (inactive) and the GI50 (MOLT-4) was > 100 µM (inactive). For the same molecule, the GI50 (Malme-3M) was > 100 µM (inactive), the GI50 (NCI-H226) was > 100 µM (inactive) and the GI50 (NCI-H23) was > 100 µM (inactive). The GI50 (NCI-H460) was > 100 µM (inactive), the GI50 (NCI-H522) was > 100 µM (inactive) and the GI50 (NCI/ADR-RES) was > 100 µM (inactive). For the same molecule, the GI50 (OVCAR-3) was > 100 µM (inactive), the GI50 (OVCAR-4) was > 100 µM (inactive) and the GI50 (OVCAR-5) was > 100 µM (inactive). The GI50 (OVCAR-8) was > 100 µM (inactive), the GI50 (PC-3) was > 100 µM (inactive) and the GI50 (RPMI-8226) was > 100 µM (inactive). The GI50 (RXF 393) was > 100 µM (inactive), the GI50 (SF-268) was > 100 µM (inactive) and the GI50 (SF-295) was > 100 µM (inactive). For the same molecule, the GI50 (SF-539) was > 100 µM (inactive), the GI50 (SK-MEL-28) was > 100 µM (inactive) and the GI50 (SK-MEL-2) was > 100 µM (inactive). The GI50 (SK-MEL-5) was > 100 µM (inactive), the GI50 (SK-OV-3) was > 100 µM (inactive) and the GI50 (SN12C) was > 100 µM (inactive). The GI50 (SNB-19) was > 100 µM (inactive), the GI50 (SNB-75) was > 100 µM (inactive) and the GI50 (SR) was > 100 µM (inactive). For the same molecule, the GI50 (SW-620) was > 100 µM (inactive), the GI50 (T47D) was > 100 µM (inactive) and the GI50 (TK-10) was > 100 µM (inactive). For the same molecule, the GI50 (U-251) was > 100 µM (inactive), the GI50 (UACC-257) was > 100 µM (inactive) and the GI50 (UACC-62) was > 100 µM (inactive). For the same molecule, the GI50 (UO-31) was > 100 µM (inactive).
